Three compounds from patent US10072096B2, “Modified glycoprotein, protein-conjugate and process for the preparation thereof” (SynAffix B.V., priority 2013, dated 2018) can be followed below.

The data set is described as follows: Stability studies of succinimides 67-69 in PBS with or without glutathione, product ratio by LC-MS. Format: physicochemical. To be noted: 37° C. On the procedure: One of succinimide conjugates 67-69 (1 mg) was dissolved in DMF (400 μL) followed by the addition of buffer solution 1, 2 or 3 (800 μL). Buffer solution 1 is PBS, buffer solution 2 is PBS+1 mM glutathione (GSH, reduced) and buffer solution 3 is PBS+1 mM glutathione (oxidized). Final concentration of glutathione (through dilution with DMF) is […]. The samples were incubated at 37° C. and measured in time. Ratio of products was determined by LC-MS.

The mark [1] stands for this setting: 48 h, buffer 2 (PBS+1 mM glutathione, reduced; final 0.71 mM).
Setting [2] is: 48 h, buffer 3 (PBS+1 mM glutathione, oxidized; final 0.71 mM).
The mark [3] stands for this setting: 120 h, buffer 2 (PBS+1 mM glutathione, reduced; final 0.71 mM).
[4] abbreviates: 120 h, buffer 3 (PBS+1 mM glutathione, oxidized; final 0.71 mM).

With `O=C(CCCN1C(=O)CC(SCC(=O)NCc2ccccc2)C1=O)NCCOCCOCCNC(=O)c1ccc2ccc3cccc4ccc1c2c34` (stereo not drawn) [Compound 67], the “Relative ratio: GS adduct (glutathione adduct formed by reverse Michael, then GSH addition)” value (“Relative ratio: GS adduct” for short) turned out to be 0 (48 h, buffer 1 (PBS)); 41 under setting [1]; 31 under setting [2]; 52 under setting [3]; 59 under setting [4]. The “Relative ratio: Hydro pro (hydrolyzed succinimide)” value (from here on “Relative ratio: Hydro pro”) is on record as 43 (48 h, buffer 1 (PBS)); 18 under setting [1]; 12 under setting [2]; 38 under setting [3]; 28 under setting [4]. Besides, the “Relative ratio: Succinimide (starting succinimide)” value (“Relative ratio: Succinimide” below) was 57 (48 h, buffer 1 (PBS)); 41 under setting [1]; 57 under setting [2]; 3 under setting [3]; 9 under setting [4].
Turning to `O=C(CCCN1C(=O)CC(SCCC(=O)NCc2ccccc2)C1=O)NCCOCCOCCNC(=O)c1ccc2ccc3cccc4ccc1c2c34` (stereo not drawn) [Compound 68], the “Relative ratio: GS adduct” value by setting is: (48 h, buffer 1 (PBS)) 0; under setting [1], 9; under setting [2], 7; (120 h, buffer 1 (PBS)) 0; under setting [3], 17; under setting [4], 16. In addition, the “Relative ratio: Hydro pro” value was 21 (48 h, buffer 1 (PBS)); 16 under setting [1]; 13 under setting [2]; 53 (120 h, buffer 1 (PBS)); 41 under setting [3]; 35 under setting [4]. In addition, the “Relative ratio: Succinimide” value reads like this: (48 h, buffer 1 (PBS)) 79; under setting [1], 75; under setting [2], 80; (120 h, buffer 1 (PBS)) 47; under setting [3], 42; under setting [4], 49.
For `O=C(CCCN1C(=O)CC(SCCCC(=O)NCc2ccccc2)C1=O)NCCOCCOCCNC(=O)c1ccc2ccc3cccc4ccc1c2c34` (stereo not drawn) [Compound 69], the “Relative ratio: GS adduct” value is, setting by setting: (48 h, buffer 1 (PBS)) 0; under setting [1], 6; under setting [2], 4; (120 h, buffer 1 (PBS)) 0; under setting [3], 12; under setting [4], 10. The “Relative ratio: Hydro pro” value by setting is: (48 h, buffer 1 (PBS)) 25; under setting [1], 14; under setting [2], 11; (120 h, buffer 1 (PBS)) 63; under setting [3], 39; under setting [4], 33. Moreover, the “Relative ratio: Succinimide” value is given as 75 (48 h, buffer 1 (PBS)); 79 under setting [1]; 85 under setting [2]; 37 (120 h, buffer 1 (PBS)); 49 under setting [3]; 57 under setting [4].
